Molecular target: T1, full-length human PKCι (Homo sapiens, UniProt P41743)
T1 construct: Recombinant, full-length human PKCι expressed in Sf21 insect cells is also commercially available; purchased; host or cells: Sf21 insect cells
T1 sequence (P41743 1-596): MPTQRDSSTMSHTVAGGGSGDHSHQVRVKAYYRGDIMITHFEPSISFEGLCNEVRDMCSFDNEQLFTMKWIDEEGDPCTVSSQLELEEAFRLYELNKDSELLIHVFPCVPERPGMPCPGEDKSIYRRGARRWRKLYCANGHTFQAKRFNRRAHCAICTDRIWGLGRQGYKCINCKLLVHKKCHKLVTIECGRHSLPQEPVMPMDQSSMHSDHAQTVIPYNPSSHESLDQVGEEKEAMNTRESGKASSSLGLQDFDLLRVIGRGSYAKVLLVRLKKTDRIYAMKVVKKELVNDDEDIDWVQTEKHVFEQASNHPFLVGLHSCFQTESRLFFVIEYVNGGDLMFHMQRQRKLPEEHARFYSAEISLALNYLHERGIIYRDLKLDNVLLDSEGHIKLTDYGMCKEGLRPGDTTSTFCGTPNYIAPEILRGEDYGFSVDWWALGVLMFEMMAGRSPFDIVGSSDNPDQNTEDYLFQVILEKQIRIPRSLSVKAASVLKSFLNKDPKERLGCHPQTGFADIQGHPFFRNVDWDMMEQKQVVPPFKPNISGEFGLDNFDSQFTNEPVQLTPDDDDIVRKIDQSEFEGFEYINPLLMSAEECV
Experiment: PKCι IC50 IMAP assay, full-length PKCι at 150 μM ATP
Type: biochemical
Details: read-out: IC50 in IMAP assay against full length PKCi at 150 μM ATP
How it was run: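 Full-length human PKCι from Sf21 cells, typically 15 pM, with 100 nM 5FAM-PKCε pseudosubstrate peptide and 150 μM ATP (5× apparent KM), 60 min at room temperature, 4% DMSO. IMAP fluorescence polarisation read-out; inhibition normalised to no-compound and no-enzyme controls, IC50 from curve fit.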

Compound | IC50 [nM]
FC(F)(F)c1cc2c(-c3nc(N4CCOCC4)c4c(C5CC5)cncc4n3)ccnc2[nH]1 [Example 1227, 5-Cyclopropyl-4-morpholin-4-yl-2-(2-trifluoromethyl-1H-pyrrolo[2,3-b]pyridin-4-yl)-pyrido[3,4-d]pyrimidine] | 10000 to 40000
N#Cc1ccnc(Nc2cc(-c3nc(N[C@@H]4CCNC4)c4ccncc4n3)ccn2)c1 [Example 321, 2-{4-[4-((R)-Pyrrolidin-3-ylamino)-pyrido[3,4-d]pyrimidin-2-yl]-pyridin-2-ylamino}-isonicotinonitrile] | < 100
COc1cncc2nc(-c3ccnc(Nc4cncc(Cl)c4)c3)nc(N3CCNCC3)c12 [Example 417, (5-Chloro-pyridin-3-yl)-[4-(5-methoxy-4-piperazin-1-yl-pyrido[3,4-d]pyrimidin-2-yl)-pyridin-2-yl]-amine] | 100 to 1000
OC1CCN(c2nc(-c3ccnc(Nc4cnn(CC5CCNCC5)c4)c3)nc3cncc(C4CC4)c23)CC1 [Example 732, 1-{5-Cyclopropyl-2-[2-(1-piperidin-4-ylmethyl-1H-pyrazol-4-ylamino)-pyridin-4-yl]-pyrido[3,4-d]pyrimidin-4-yl}-piperidin-4-ol] | < 100
COc1cncc2nc(-c3ccnc(NC(=O)C4CC4)c3)nc(N3CCC(O)CC3)c12 [Example 234, Cyclo-propane-carboxylic acid {4-[4-(4-hydroxy-piperidin-1-yl)-5-methoxy-pyrido[3,4-d]pyrimidin-2-yl]-pyridin-2-yl}-amide] | 100 to 1000
CCc1cccc(Nc2cc(-c3nc(N4CCNCC4)c4c(C5CC5)cncc4n3)ccn2)c1 [Example 623, [4-(5-Cyclopropyl-4-piperazin-1-yl-pyrido[3,4-d]pyrimidin-2-yl)-pyridin-2-yl]-(3-ethyl-phenyl)-amine] | < 100
c1ccc(C2(c3cc4c(-c5nc(N6CCNCC6)c6c(C7CC7)cncc6n5)ccnc4[nH]3)CC2)cc1 [Example 1240, 5-Cyclopropyl-2-[2-(1-phenyl-cyclopropyl)-1H-pyrrolo[2,3-b]pyridin-4-yl]-4-piperazin-1-yl-pyrido[3,4-d]pyrimidine] | < 100
Fc1cc(C2CCC2)cnc1Nc1cc(-c2nc(N3CCNCC3)c3c(C4CC4)cncc3n2)ccn1 [Example 2013, (5-Cyclobutyl-3-fluoro-pyridin-2-yl)-[4-(5-cyclopropyl-4-piperazin-1-yl-pyrido[3,4-d]pyrimidin-2-yl)-pyridin-2-yl]-amine] | < 100
C#CC1CN(c2nc(-c3ccncc3)nc3cnccc23)CCN1 (stereo not shown) [Example 71, 3-ethynyl-1-[2-(pyridin-4-yl)-pyrido[3,4-d]-pyrimidin-4-yl]-piperazine] | 1000 to 10000
FC1CCC(Nc2cc(-c3nc(N4CCNCC4)c4c(C5CC5)cncc4n3)ccn2)CC1 (stereo not shown) [Example 601, [4-(5-Cyclopropyl-4-piperazin-1-yl-pyrido[3,4-d]pyrimidin-2-yl)-pyridin-2-yl]-(4-fluorocyclohexyl)-amine] | < 100
N#Cc1ccc(Nc2cc(-c3nc(N4CCNCC4)c4c(C5CC5)cncc4n3)ccn2)cn1 [Example 506, 5-[4-(5-Cyclopropyl-4-piperazin-1-yl-pyrido[3,4-d]pyrimidin-2-yl)-pyridin-2-ylamino]-pyridine-2-carbonitrile] | 100 to 1000
COc1cncc2nc(-c3ccnc(Nc4ccc(C#N)nc4)c3)nc(N3CCNCC3)c12 [Example 384] | 100 to 1000
N[C@H](CNc1nc(-c2ccncc2)nc2c(-c3ccccc3)nccc12)Cc1ccccc1 [Example 90, N-[(2S)-2-amino-3-phenylpropyl]-8-phenyl-2-(pyridin-4-yl)pyrido[3,4-d]-pyrimidin-4-amine] | 100 to 1000
COc1cncc2nc(-c3ccncc3)nc(NC[C@@H](N)[C@H](F)c3ccccc3)c12 [Example 47, N-[(2R,3R)-2-amino-3-fluoro-3-phenylpropyl]-5-methoxy-2-(pyridin-4-yl)pyrido[3,4-d]-pyrimidin-4-amine] | < 100
COc1cncc2nc(-c3ccnc(Nc4ccc(N5CCN(C)CC5)cc4C)c3)nc(N3CCNCC3)c12 [Example 413, [4-(5-Methoxy-4-piperazin-1-yl-pyrido[3,4-d]pyrimidin-2-yl)-pyridin-2-yl]-[2-methyl-4-(4-methyl-piperazin-1-yl)-phenyl]-amine] | < 100
Fc1cccc(F)c1Nc1cc(-c2nc(NCC3CCN(C4CCC4)CC3)c3c(C4CC4)cncc3n2)ccn1 [Example 2103, (1-Cyclobutyl-piperidin-4-ylmethyl)-{5-cyclopropyl-2-[2-(2,6-difluoro-phenylamino)-pyridin-4-yl]-pyrido[3,4-d]pyrimidin-4-yl}-amine] | 100 to 1000
FC(F)(F)c1ccc(Cl)c(Nc2cc(-c3nc(N4CCNCC4)c4c(C5CC5)cncc4n3)ccn2)c1 [Example 597, (2-Chloro-5-trifluoromethyl-phenyl)-[4-(5-cyclopropyl-4-piperazin-1-yl-pyrido[3,4-d]pyrimidin-2-yl)-pyridin-2-yl]-amine] | 10000 to 40000
CN1Cc2ccc(Nc3cc(-c4nc(N5CCC(O)CC5)c5c(C6CC6)cncc5n4)ccn3)cc2C1 [Example 821, 1-{5-Cyclopropyl-2-[2-(2-methyl-2,3-dihydro-1H-isoindol-5-ylamino)-pyridin-4-yl]-pyrido[3,4-d]pyrimidin-4-yl}-piperidin-4-ol] | < 100
COc1cncc2nc(-c3ccnc(NC(=O)[C@H](C)c4ccccc4)c3)nc(N[C@@H]3CCNC3)c12 [Example 406, (R)-N-{4-[5-Methoxy-4-((R)-pyrrolidin-3-ylamino)-pyrido[3,4-d]pyrimidin-2-yl]-pyridin-2-yl}-2-phenyl-propionamide] | 100 to 1000
COc1cccc(Nc2cc(-c3nc(N4CCNCC4)c4c(C5CC5)cncc4n3)ccn2)n1 [Example 588, [4-(5-Cyclopropyl-4-piperazin-1-yl-pyrido[3,4-d]pyrimidin-2-yl)-pyridin-2-yl]-(6-methoxy-pyridin-2-yl)-amine] | < 100
COc1cncc2nc(-c3ccnc(Nc4cc(C(F)(F)F)ccn4)c3)nc(N3CCNCC3)c12 [Example 367, [4-(5-Methoxy-4-piperazin-1-yl-pyrido[3,4-d]pyrimidin-2-yl)-pyridin-2-yl]-(4-trifluoromethyl-pyridin-2-yl)-amine] | < 100
CN1CCN(c2nc(-c3ccncc3)nc3cnccc23)CC1 [Example 18, 1-methyl-4-[2-(pyridin-4-yl)-pyrido[3,4-d]-pyrimidin-4-yl]-piperazine] | 10000 to 40000

Further lines, results first:

IC50 [nM] | Compound
< 100 | COc1cc(Nc2cc(-c3nc(N4CCNCC4)c4c(OC)cncc4n3)ccn2)ccc1N1CCOCC1 [Example 382, (3-Methoxy-4-morpholin-4-yl-phenyl)-[4-(5-methoxy-4-piperazin-1-yl-pyrido[3,4-d]pyrimidin-2-yl)-pyridin-2-yl]-amine]
< 100 | CC(C)n1ccc(Nc2cc(-c3nc(N4CCNC(C)(C)C4)c4c(C5CC5)cncc4n3)ccn2)n1 [Example 2018, {4-[5-Cyclopropyl-4-(3,3-dimethyl-piperazin-1-yl)-pyrido[3,4-d]pyrimidin-2-yl]-pyridin-2-yl}-(1-isopropyl-1H-pyrazol-3-yl)-amine]
< 100 | COc1cncc2nc(-c3ccnc(Nc4cc(C#N)ccn4)c3)nc(N3CCNCC3)c12 [Example 352, 2-[4-(5-Methoxy-4-piperazin-1-yl-pyrido[3,4-d]pyrimidin-2-yl)-pyridin-2-ylamino]-isonicotinonitrile]
100 to 1000 | COc1cncc2nc(-c3ccnc(Nc4ccc(C#N)cc4F)c3)nc(N3CCNCC3)c12 [Example 419, 3-Fluoro-4-[4-(5-methoxy-4-piperazin-1-yl-pyrido[3,4-d]pyrimidin-2-yl)-pyridin-2-ylamino]-benzonitrile]
< 100 | O=C(Cc1ccccc1)Nc1cc(-c2nc(N3CCNCC3)c3c(C4CC4)cncc3n2)ccn1 [Example 612, N-[4-(5-Cyclopropyl-4-piperazin-1-yl-pyrido[3,4-d]pyrimidin-2-yl)-pyridin-2-yl]-2-phenyl-acetamide]
100 to 1000 | Nc1ccccc1C(=O)Nc1cc(-c2nc(N[C@@H]3CCNC3)c3ccncc3n2)ccn1 [Example 303, 2-Amino-N-{4-[4-((R)-pyrrolidin-3-ylamino)-pyrido[3,4-d]pyrimidin-2-yl]-pyridin-2-yl}-benzamide]
< 100 | c1ccc2cc(Nc3cc(-c4nc(N5CCNCC5)c5c(C6CC6)cncc5n4)ccn3)ncc2c1 [Example 2060, [4-(5-Cyclopropyl-4-piperazin-1-yl-pyrido[3,4-d]pyrimidin-2-yl)-pyridin-2-yl]-iso[D4],[D3]uinolin-3-yl-amine]
< 100 | Cc1cccc(Nc2cc(-c3nc(N4CCNCC4)c4c(C5CC5)cncc4n3)ccn2)c1C [Example 540, [4-(5-Cyclopropyl-4-piperazin-1-yl-pyrido[3,4-d]pyrimidin-2-yl)-pyridin-2-yl]-(2,3-dimethyl-phenyl)-amine]
100 to 1000 | CNc1cc(-c2nc(N3CCNCC3)c3c(OC)cncc3n2)ccn1 [Example 213, [4-(5-Methoxy-4-piperazin-1-yl-pyrido[3,4-d]pyrimidin-2-yl)-pyridin-2-yl]-methyl-amine]
